The subject of the assay is TSU-PR1 cells. The assay is described as follows: TSU-PR1 tumor xenograft in whole-body-irradiated BALB/NUDE mice. Conditions: BALB/NUDE mice irradiated with 400 cGy, s.c. TSU-PR1 tumors; AD-2813 20 mg/kg in cremophor s.c. daily close to tumor; after about 10 days of treatment; compared to control and cremophor groups (FIG. 1). The format is in vivo. How it is done:
BALB/NUDE mice were whole body irradiated with 400 cGy, 10 days later they were injected s.c. with 3.5*10e6 TSU-PR1 cells/mouse which are commonly considered as prostate carcinoma cells but recently are also considered by some as bladder carcinoma cells. Eight days later, tumors were formed, and mice were separated into 3 groups: Group 1: a control without any injection. Group 2: were injected s.c. with vehicle (cremophor) Group 3: were treated s.c. daily with AD-2813 (20 mg/kg in cremophor) close to tumor. […] The drastic change in tumor volume is pronounced particularly when compared to the control and treatment with cremophor groups.

`CCCCCCCCCCCCCCNC(CO)C(O)c1ccc(SC)cc1.Cl` (stereo not shown) [AD-2813]: the tumor volume result is on record as “significant decrease in tumor volume”.

Source of the values: patent US20100311841A1, “SYNTHETIC SPHINGOLIPID ANALOGS” (priority 2007, published 2010).
